Source: patent US4778811A, “Pharmaceutical compositions of 2-methyl-thiazolo[4,5-c]quinoline” (EGIS Gyogyszergyar, priority 1985, dated 1988)

Assays:
malaria = details: cited from earlier work
[1] = Central nervous depressant effect
benzodiazepine receptor = assay: Benzodiazepine (BZD) receptor binding, 3H-diazepam displacement, crude cortical membrane preparation
Description: For the studies of benzodiazepine /BZD) receptor binding crude cortical membrane preparation was used. […] ^3 H-diazepam was incubated with the membrane for 1 hr at 0° C. in TRIS-citrate buffer, pH 6.8. Specific binding was determined in the presence of 10 μM diazepam. In displacement studies chlordiazepoxide was used as control drug.

[2] = Screening test: one session conditioning / unconditioned reflex, glass cylinder jump; assay type: in vivo, rats
Description: Was elaborated for studying learning and retention of rats during one session conditioning.
During conditioning rats are trained to jump onto the top of glass cylinder by the electric foot-shock (110 V). The escape reaction (unconditioned reflex, UR) is paired with a bell as conditioned stimulus. The criterion of learning is that conditioned reflex (CR) should be elicited 10 times with 10 s intervals without reinforcement. Retention of CR is taken positive when 24 h following the experiment CR can be elicited. In these experiments animals are distributed into 4 categories on the basis of their learning ability.

[3] = Shuttle-box, acquisition of two-way conditioned avoidance reflex; assay type: in vivo
Description: The acquisition of a two-way conditioned avoidance reflex (CAR) was analyzed in the shuttle-box during 5 consecutive days. […] It consists of six boxes, each is separated inside by a barrier with a small gate in the middle. […] They were given 100 trials per day. One trial consisted of 15 s intertrial interval, followed by 15 s CS. The last 5 s of CS overlapped the first s of US. At each learning session the number of CAR and intersignal reactions (IR) was automatically counted and evaluated by multiway analysis of variance (ANOVA).

[4] = Effect on basal metabolism (O2 consumption); assay type: in vivo, rats; details: urethane 0.6 g/kg i.p., 30° C.
Description: The O2 consumption of rats was measured by the method of Issekutz and Issekutz (1952) at constant temperature (30° C.).
O2 consumption of the animals was expressed in ml/h and calculated for body surface, and given finally in ml/h/dm^2. Following injection of urethane and the basal O2 consumption was measured during 30 minutes. This was followed by the injection of the test substance and O2 consumption was registered immediately afterwards. The difference between the highest O2 consumption and the basal value was expressed in percent.
O2 consumption of the animals was calculated according to the following equation: [formula] V=2000 cm^3 P=pressure fall (mmHg)
T=period of measurement (h)
O2 consumption was calculated for body surface and expressed as ml/dm^2 /h. Body surface was calculated on the basis of the "Diack" formula: […]

[5] = Measurement of motility in the shuttle-box; assay type: in vivo; details: 30-minute observation
Description: The apparatus described in the shuttle-box test is used also for investigating the motility of animals. In case of motility experiment all the stimuli are switched off and the animals are allowed to move freely from one compartment of the box to the other. […] Significancy is calculated by Student's test for two means.

Cc1nc2cnc3ccccc3c2s1 [Formula I, 2-methyl-thiazolo[4,5-c]quinoline]
spasmolytic effect (Spasmolytic effect): void of any spasmolytic effect
effect against malaria (malaria): completely ineffective against malaria
central nervous depressant effect [1]: significantly stronger central depressant effect than benzodiazepines
binding by benzodiazepine receptors (benzodiazepine receptor): not bound by benzodiazepine receptors
displacement of 3H-diazepam specific binding (benzodiazepine receptor; crude cortical membrane, 1 hr, 0° C., TRIS-citrate buffer, pH 6.8): even in high concentration did not alter the specific binding of ^3 H-diazepam
escape of animals in the one session unconditioned reflex test ([2]; even in high doses): enables the escape of animals
inhibition of non-specific activation mechanisms ([2]; rat, in vivo): does not inhibit non-specific activation mechanisms

Cc1nc2cnc3ccccc3c2s1.Cl [A compound, 2-methyl-thiazolo[4,5-c]quinoline-hydrochloride]
acquisition of conditioned reflex, number of positive responses (F) ([3]; 5 mg/kg s.c., day 1): 17.8
number of intersignal reactions (IR) ([3]; 5 mg/kg s.c., day 1): 9.5
number of negative responses (-f) ([3]; 5 mg/kg s.c., day 1): 14.4
acquisition of conditioned reflex, number of positive responses (F) ([3]; 5 mg/kg s.c., day 2): 29.6
number of intersignal reactions (IR) ([3]; 5 mg/kg s.c., day 2): 8.9
number of negative responses (-f) ([3]; 5 mg/kg s.c., day 2): 23.0
acquisition of conditioned reflex, number of positive responses (F) ([3]; 5 mg/kg s.c., day 3): 24.3
number of intersignal reactions (IR) ([3]; 5 mg/kg s.c., day 3): 3.2
number of negative responses (-f) ([3]; 5 mg/kg s.c., day 3): 24.6
acquisition of conditioned reflex, number of positive responses (F) ([3]; 5 mg/kg s.c., day 4): 23.0
number of intersignal reactions (IR) ([3]; 5 mg/kg s.c., day 4): 2.9
number of negative responses (-f) ([3]; 5 mg/kg s.c., day 4): 25.4
acquisition of conditioned reflex, number of positive responses (F) ([3]; 5 mg/kg s.c., day 5): 29.4
number of intersignal reactions (IR) ([3]; 5 mg/kg s.c., day 5): 2.3
number of negative responses (-f) ([3]; 5 mg/kg s.c., day 5): 27.5
acquisition of conditioned reflex, number of positive responses (F) ([3]; 10 mg/kg s.c., day 1): 12.0
number of intersignal reactions (IR) ([3]; 10 mg/kg s.c., day 1): 8.9
number of negative responses (-f) ([3]; 10 mg/kg s.c., day 1): 70.4
acquisition of conditioned reflex, number of positive responses (F) ([3]; 10 mg/kg s.c., day 2): 14.7
number of intersignal reactions (IR) ([3]; 10 mg/kg s.c., day 2): 7.3
number of negative responses (-f) ([3]; 10 mg/kg s.c., day 2): 55.3
acquisition of conditioned reflex, number of positive responses (F) ([3]; 10 mg/kg s.c., day 3): 7.2
number of intersignal reactions (IR) ([3]; 10 mg/kg s.c., day 3): 2.7
number of negative responses (-f) ([3]; 10 mg/kg s.c., day 3): 58.2
acquisition of conditioned reflex, number of positive responses (F) ([3]; 10 mg/kg s.c., day 4): 5.5
number of intersignal reactions (IR) ([3]; 10 mg/kg s.c., day 4): 2.1
number of negative responses (-f) ([3]; 10 mg/kg s.c., day 4): 66.8
acquisition of conditioned reflex, number of positive responses (F) ([3]; 10 mg/kg s.c., day 5): 7.3
number of intersignal reactions (IR) ([3]; 10 mg/kg s.c., day 5): 2.1
number of negative responses (-f) ([3]; 10 mg/kg s.c., day 5): 68.2
acquisition of conditioned reflex, number of positive responses (F) ([3]; 25 mg/kg s.c., day 1): 7.0
number of intersignal reactions (IR) ([3]; 25 mg/kg s.c., day 1): 10.7
number of negative responses (-f) ([3]; 25 mg/kg s.c., day 1): 83.6
acquisition of conditioned reflex, number of positive responses (F) ([3]; 25 mg/kg s.c., day 2): 6.6
number of intersignal reactions (IR) ([3]; 25 mg/kg s.c., day 2): 5.7
number of negative responses (-f) ([3]; 25 mg/kg s.c., day 2): 85.1
acquisition of conditioned reflex, number of positive responses (F) ([3]; 25 mg/kg s.c., day 3): 2.6
number of intersignal reactions (IR) ([3]; 25 mg/kg s.c., day 3): 4.4
number of negative responses (-f) ([3]; 25 mg/kg s.c., day 3): 94.3
acquisition of conditioned reflex, number of positive responses (F) ([3]; 25 mg/kg s.c., day 4): 1.6
number of intersignal reactions (IR) ([3]; 25 mg/kg s.c., day 4): 3.8
number of negative responses (-f) ([3]; 25 mg/kg s.c., day 4): 93.8
acquisition of conditioned reflex, number of positive responses (F) ([3]; 25 mg/kg s.c., day 5): 3.1
number of intersignal reactions (IR) ([3]; 25 mg/kg s.c., day 5): 4.2
number of negative responses (-f) ([3]; 25 mg/kg s.c., day 5): 95.0
rate of metabolism / O2 consumption [4]: slightly
motility (spontaneous crossings of the gate) [5]: slight motility decreasing effect
